Test results as given in the supplement of paper PMC10307832.

Legend:
Assay in all cases: relative viability (nuclei count vs DMSO), 5 days (fraction); higher = more cells survive
[1] = tested on: NCI-H2009
In short: (§1)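 One day after seeding in 1536-well plates, lung cancer cell lines were dosed by pin tool. Dosing was either single-drug or a fixed anchor-drug dose plus five library-drug doses (not always all listed) in √10 steps. After 5 days, nuclei were stained in one fix-and-stain step and counted on 4× images, and relative viability is the nuclei count of treated wells over that of vehicle wells, given as the median of duplicate plates.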

[2] = tested on: NCI-H2170
In short: as §1

[3] = tested on: NCI-H1755
In short: as §1

[4] = tested on: EMC-BAC-2
In short: as §1

[5] = tested on: NCI-H1651
In short: as §1

[6] = tested on: H3255
In short: as §1

[7] = tested on: HOP-62
In short: as §1

[8] = tested on: NCI-H322M
In short: as §1

[9] = tested on: ABC-1
In short: as §1

[10] = tested on: NCI-H596
In short: as §1

[11] = tested on: NCI-H2126
In short: as §1

[12] = tested on: 201T
In short: as §1

[13] = tested on: NCI-H3122
In short: as §1

[14] = tested on: LK-2
In short: as §1

[15] = tested on: NCI-H1734
In short: as §1

[16] = tested on: CAL-12T
In short: as §1

[17] = tested on: SK-MES-1
In short: as §1

[18] = tested on: NCI-H2087
In short: as §1

[19] = tested on: NCI-H441
In short: as §1

[20] = tested on: PC-14
In short: as §1

[21] = tested on: ChaGo-K-1
In short: as §1

[22] = tested on: NCI-H647
In short: as §1

[23] = tested on: LXF-289
In short: as §1

Compound `Cc1cnc(-c2cnc(NCCNc3ccc(C#N)cn3)nc2-c2ccc(Cl)cc2Cl)[nH]1` + Cc1nc(Nc2ncc(C(=O)Nc3c(C)cccc3Cl)s2)cc(N2CCN(CCO)CC2)n1 [Dasatinib] (partner 0.075 µM) has a relative viability ([1]; first compound 0.08 µM) of 0.322, a relative viability ([1]; first compound 0.253 µM) of 0.284 and a relative viability ([1]; first compound 0.8 µM) of 0.282. For the same compound, the relative viability ([1]; first compound 2.53 µM) was 0.231, the relative viability ([2]; first compound 0.08 µM) was 0.556 and the relative viability ([2]; first compound 0.253 µM) was 0.345. It also gave a relative viability ([2]; first compound 0.8 µM) of 0.576, a relative viability ([2]; first compound 2.53 µM) of 0.487 and a relative viability ([3]; first compound 0.08 µM) of 0.435. It also gave a relative viability ([3]; first compound 0.253 µM) of 0.427, a relative viability ([3]; first compound 0.8 µM) of 0.398 and a relative viability ([3]; first compound 2.53 µM) of 0.399. The relative viability ([4]; first compound 0.08 µM) was 0.409, the relative viability ([4]; first compound 0.253 µM) was 0.336 and the relative viability ([4]; first compound 0.8 µM) was 0.317. For the same compound, the relative viability ([4]; first compound 2.53 µM) was 0.332, the relative viability ([5]; first compound 0.08 µM) was 0.426 and the relative viability ([5]; first compound 0.253 µM) was 0.436. The relative viability ([5]; first compound 0.8 µM) was 0.376, the relative viability ([5]; first compound 2.53 µM) was 0.355 and the relative viability ([6]; first compound 0.08 µM) was 0.466. For the same compound, the relative viability ([6]; first compound 0.253 µM) was 0.445, the relative viability ([6]; first compound 2.53 µM) was 0.388 and the relative viability ([7]; first compound 0.08 µM) was 0.67. For the same compound, the relative viability ([7]; first compound 0.253 µM) was 0.668, the relative viability ([7]; first compound 0.8 µM) was 0.709 and the relative viability ([7]; first compound 2.53 µM) was 0.749. It also gave a relative viability ([8]; first compound 0.08 µM) of 0.246, a relative viability ([8]; first compound 0.253 µM) of 0.281 and a relative viability ([8]; first compound 0.8 µM) of 0.248. It also gave a relative viability ([8]; first compound 2.53 µM) of 0.274, a relative viability ([9]; first compound 0.08 µM) of 0.553 and a relative viability ([9]; first compound 0.8 µM) of 0.476. For the same compound, the relative viability ([9]; first compound 2.53 µM) was 0.417, the relative viability ([10]; first compound 0.08 µM) was 0.601 and the relative viability ([10]; first compound 0.253 µM) was 0.656. For the same compound, the relative viability ([10]; first compound 0.8 µM) was 0.624, the relative viability ([10]; first compound 2.53 µM) was 0.607 and the relative viability ([11]; first compound 0.08 µM) was 0.686. The relative viability ([11]; first compound 0.253 µM) was 0.54, the relative viability ([11]; first compound 0.8 µM) was 0.604 and the relative viability ([11]; first compound 2.53 µM) was 0.529. For the same compound, the relative viability ([12]; first compound 0.08 µM) was 0.621, the relative viability ([12]; first compound 0.8 µM) was 0.591 and the relative viability ([12]; first compound 2.53 µM) was 0.571. The relative viability ([13]; first compound 0.08 µM) was 0.859, the relative viability ([13]; first compound 0.8 µM) was 0.714 and the relative viability ([13]; first compound 2.53 µM) was 0.528. For the same compound, the relative viability ([14]; first compound 0.08 µM) was 0.387, the relative viability ([14]; first compound 0.253 µM) was 0.302 and the relative viability ([14]; first compound 0.8 µM) was 0.39. It also gave a relative viability ([15]; first compound 0.08 µM) of 0.461, a relative viability ([15]; first compound 0.253 µM) of 0.417 and a relative viability ([15]; first compound 0.8 µM) of 0.467. The relative viability ([15]; first compound 2.53 µM) was 0.415, the relative viability ([16]; first compound 0.08 µM) was 0.523 and the relative viability ([16]; first compound 0.253 µM) was 0.358. The relative viability ([16]; first compound 0.8 µM) was 0.23, the relative viability ([16]; first compound 2.53 µM) was 0.198 and the relative viability ([17]; first compound 0.08 µM) was 0.332. The relative viability ([17]; first compound 0.253 µM) was 0.425, the relative viability ([17]; first compound 0.8 µM) was 0.401 and the relative viability ([17]; first compound 2.53 µM) was 0.247. It also gave a relative viability ([18]; first compound 0.08 µM) of 0.837, a relative viability ([18]; first compound 0.253 µM) of 0.698 and a relative viability ([18]; first compound 0.8 µM) of 0.919. It also gave a relative viability ([18]; first compound 2.53 µM) of 0.614, a relative viability ([19]; first compound 0.08 µM) of 0.672 and a relative viability ([19]; first compound 0.253 µM) of 0.578. The relative viability ([19]; first compound 0.8 µM) was 0.385, the relative viability ([19]; first compound 2.53 µM) was 0.403 and the relative viability ([20]; first compound 0.08 µM) was 0.325. It also gave a relative viability ([20]; first compound 0.253 µM) of 0.226, a relative viability ([20]; first compound 2.53 µM) of 0.172 and a relative viability ([21]; first compound 0.08 µM) of 0.607. It also gave a relative viability ([21]; first compound 0.253 µM) of 0.462, a relative viability ([21]; first compound 0.8 µM) of 0.512 and a relative viability ([21]; first compound 2.53 µM) of 0.515. It also gave a relative viability ([22]; first compound 0.08 µM) of 0.229, a relative viability ([22]; first compound 0.253 µM) of 0.197 and a relative viability ([22]; first compound 0.8 µM) of 0.179. The relative viability ([22]; first compound 2.53 µM) was 0.223, the relative viability ([23]; first compound 0.08 µM) was 0.249 and the relative viability ([23]; first compound 0.253 µM) was 0.204. For the same compound, the relative viability ([23]; first compound 0.8 µM) was 0.189 and the relative viability ([23]; first compound 2.53 µM) was 0.139.
